These results are taken from patent publication US8987445B2, “Sulfonamide compounds having TRPM8 antagonistic activity” (Mitsubishi Tanabe Pharma Corporation, priority 2011, dated 2015).

Chain of human TRPM8 (Q7Z2W7 whole entry): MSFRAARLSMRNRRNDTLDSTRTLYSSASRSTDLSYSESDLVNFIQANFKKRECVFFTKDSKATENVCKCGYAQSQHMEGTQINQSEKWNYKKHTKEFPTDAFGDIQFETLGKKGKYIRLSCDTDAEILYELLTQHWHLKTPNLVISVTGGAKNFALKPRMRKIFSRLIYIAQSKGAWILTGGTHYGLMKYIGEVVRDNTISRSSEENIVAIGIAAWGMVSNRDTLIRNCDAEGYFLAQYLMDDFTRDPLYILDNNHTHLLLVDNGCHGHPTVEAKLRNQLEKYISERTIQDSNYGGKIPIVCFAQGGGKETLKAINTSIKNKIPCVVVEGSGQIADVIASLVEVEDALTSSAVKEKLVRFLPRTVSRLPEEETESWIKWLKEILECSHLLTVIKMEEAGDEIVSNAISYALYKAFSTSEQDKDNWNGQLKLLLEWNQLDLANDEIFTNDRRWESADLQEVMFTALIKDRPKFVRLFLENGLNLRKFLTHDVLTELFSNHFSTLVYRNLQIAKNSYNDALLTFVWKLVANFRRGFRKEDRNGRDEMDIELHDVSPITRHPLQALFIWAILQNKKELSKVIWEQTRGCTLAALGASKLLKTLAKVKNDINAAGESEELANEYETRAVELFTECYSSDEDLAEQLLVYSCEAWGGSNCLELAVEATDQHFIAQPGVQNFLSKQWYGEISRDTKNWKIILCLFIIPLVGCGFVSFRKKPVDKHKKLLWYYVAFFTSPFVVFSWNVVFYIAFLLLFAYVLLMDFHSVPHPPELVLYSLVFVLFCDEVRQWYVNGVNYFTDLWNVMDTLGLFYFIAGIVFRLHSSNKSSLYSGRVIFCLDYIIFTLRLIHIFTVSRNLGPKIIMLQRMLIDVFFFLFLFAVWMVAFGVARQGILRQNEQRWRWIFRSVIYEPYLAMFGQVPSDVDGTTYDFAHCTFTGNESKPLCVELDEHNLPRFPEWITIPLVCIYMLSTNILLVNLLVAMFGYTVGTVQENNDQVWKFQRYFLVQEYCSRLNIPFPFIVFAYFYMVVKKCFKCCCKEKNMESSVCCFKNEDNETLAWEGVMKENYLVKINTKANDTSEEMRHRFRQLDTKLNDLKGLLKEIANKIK
Chain of TRPM8 (Q8R455 whole entry): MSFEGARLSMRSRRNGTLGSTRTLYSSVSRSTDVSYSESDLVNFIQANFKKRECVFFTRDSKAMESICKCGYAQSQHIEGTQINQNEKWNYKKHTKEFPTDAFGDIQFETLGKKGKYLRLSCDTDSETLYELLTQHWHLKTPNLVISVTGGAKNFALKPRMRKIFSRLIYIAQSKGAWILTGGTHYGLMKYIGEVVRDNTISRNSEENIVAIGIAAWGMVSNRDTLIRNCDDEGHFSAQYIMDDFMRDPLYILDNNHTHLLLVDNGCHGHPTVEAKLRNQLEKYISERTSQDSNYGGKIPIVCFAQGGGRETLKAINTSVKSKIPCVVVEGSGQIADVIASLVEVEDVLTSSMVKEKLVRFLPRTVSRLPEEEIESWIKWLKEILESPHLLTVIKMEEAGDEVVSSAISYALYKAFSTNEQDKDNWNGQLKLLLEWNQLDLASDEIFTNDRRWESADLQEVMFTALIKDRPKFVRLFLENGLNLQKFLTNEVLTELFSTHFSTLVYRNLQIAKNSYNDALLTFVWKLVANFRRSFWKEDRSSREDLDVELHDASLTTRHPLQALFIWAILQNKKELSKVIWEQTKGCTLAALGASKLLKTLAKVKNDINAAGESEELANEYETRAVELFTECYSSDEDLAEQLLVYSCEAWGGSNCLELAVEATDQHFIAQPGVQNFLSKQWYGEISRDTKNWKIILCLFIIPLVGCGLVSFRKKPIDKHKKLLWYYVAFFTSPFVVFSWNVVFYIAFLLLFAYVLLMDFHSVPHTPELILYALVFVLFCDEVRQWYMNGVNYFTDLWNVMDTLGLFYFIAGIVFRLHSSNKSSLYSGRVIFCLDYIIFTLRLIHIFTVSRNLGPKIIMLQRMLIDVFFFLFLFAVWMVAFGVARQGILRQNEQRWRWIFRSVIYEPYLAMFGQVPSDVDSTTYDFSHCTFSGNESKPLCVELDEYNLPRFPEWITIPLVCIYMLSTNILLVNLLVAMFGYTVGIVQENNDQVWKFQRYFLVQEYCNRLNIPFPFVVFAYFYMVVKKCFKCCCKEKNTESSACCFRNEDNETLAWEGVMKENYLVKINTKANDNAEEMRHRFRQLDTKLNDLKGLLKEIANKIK

For the first assay, the target named is human TRPM8 (Homo sapiens (Human), UniProt Q7Z2W7). The assay is described as follows: TRPM8 inhibition assay (menthol-induced calcium influx, FDSS). In kind it is cell-based. To be noted: HEK293 cells stably expressing human TRPM8; 100 μM menthol; Fura-2AM Ca2+ signal; read-out: TRPM8 Blocking Test (IC50). On the procedure:
The functional activity of compounds was determined by measuring changes in intracellular calcium concentration using a Ca^2+ sensitive fluorescent dye. The changes in fluorescent signal were monitored by the cell imaging technology by Hamamatsu Photonics's Functional Drug Screening System (FDSS). […] HEK293 cells stably expressing human TRPM8 were grown in flasks. On assay day, the culture medium was removed, and cells were washed with phosphate-buffered saline (PBS) and harvested with PBS containing 2 mM ethylenediaminetetraacetic acid, disodium salt (EDTA, 2Na). […] Subsequently, suspended 20,000 to 50,000 cells per well were incubated with test compound (at varying concentrations) in each well for 20 min at 37° C. Changes in intracellular Ca^2+ evoked by 100 μM menthol were measured for 2 min using FDSS. IC50 vales were determined from four-point concentration-response studies. Curves were generated using the average of quadruplicate wells for each data point.
One may read the IC50 as the concentration at which inhibition is half-maximal. On to `O=C(O)c1ccc(S(=O)(=O)N(Cc2ccc(OC(F)(F)F)cc2)c2ncc3ccccc3c2C(F)(F)F)cc1` [Example 106, 4-({[4-(trifluoromethoxy)benzyl][4-(trifluoromethyl)isoquinolin-3-yl]amino}sulfonyl)benzoic acid], for which the IC50 was found to be 2 nM. Still for that read-out and setting: for `COc1c(N(Cc2ccc(OC(F)(F)F)cc2)S(=O)(=O)c2ccc(C(=O)O)cc2)ncc2ccccc12` [Example 149] the value was 3.9 nM; for `O=C(O)c1ccc(S(=O)(=O)N(c2ncc3ccccc3c2C2CC2)C2CCc3cc(OC(F)(F)F)ccc32)cc1` (stereo not shown) [Example 186], 4.3 nM; for `Cc1c(N(Cc2cccc(C(F)(F)C3CC3)c2)S(=O)(=O)c2ccc(C(=O)O)cc2)ncc2ccccc12` [Example 205], 31 nM.

In the case of `Cc1cc2ccccc2nc1N(Cc1cccc(C(F)(F)C2CC2)c1)S(=O)(=O)c1ccc(C(=O)O)cc1` [Example 206], the concentration for half-maximal inhibition (IC50) came to 21 nM. Still for that read-out and setting: in the case of `Cc1c(N(Cc2ccc(F)c(C(F)(F)C3CC3)c2)S(=O)(=O)c2ccc(C(=O)O)cc2)ncc2ccccc12` [Example 207] it was 11 nM; in that of `Cc1cc2ccccc2nc1N(Cc1ccc(F)c(C(F)(F)C2CC2)c1)S(=O)(=O)c1ccc(C(=O)O)cc1` [Example 208], 9.6 nM; in that of `Cc1c(N(Cc2ccc(C(F)(F)C3(C)CC3)cc2)S(=O)(=O)c2ccc(C(=O)O)cc2)ncc2ccccc12` [Example 209], 1 nM. In the case of `Cn1ccc2c(N(Cc3ccc(OC(F)(F)F)cc3)S(=O)(=O)c3ccc(C(=O)O)cc3)ncc(Cl)c21` [Example 211], the IC50 was found to be 987 nM. On to `O=C(O)c1ccc(S(=O)(=O)N(Cc2ccc(OC(F)(F)F)cc2)c2ncc(Cl)c3sccc23)cc1` [Example 212], for which the IC50 was 75 nM. Take `Cc1c(N(Cc2ccc(OC(F)(F)F)cc2)S(=O)(=O)c2ccc(C(=O)O)cc2)nc(-c2cccnc2)c2ccccc12` [Example 213]: the IC50 was found to be 116 nM. Still for that read-out and setting: for `CCc1nc(N(Cc2ccc(OC(F)(F)F)cc2)S(=O)(=O)c2ccc(C(=O)O)cc2)c(C)c2ccccc12` [Example 214] the value was 8.1 nM. Turning to `Cc1c(N(Cc2ccc(OC(F)(F)F)cc2)S(=O)(=O)c2ccc(C(=O)O)cc2)nc(C2CC2)c2c(C)cccc12` [Example 215], the IC50 worked out at 8.2 nM.

As for `O=C(O)c1ccc(S(=O)(=O)N(Cc2ccc(OC(F)(F)F)cc2)c2cc3ccccc3c(C3CC3)n2)cc1` [Example 216], the half-inhibitory concentration (IC50) is 66 nM. On the same count and under the same terms, for `O=C(O)c1ccc(S(=O)(=O)N(Cc2ccc(OC(F)(F)F)cc2)c2cc3c(C4CC4)cccc3cn2)cc1` [Example 217] the value was 239 nM; for `COCc1nc(N(Cc2ccc(OC(F)(F)F)cc2)S(=O)(=O)c2ccc(C(=O)O)cc2)c(C)c2ccccc12` [Example 218], 21 nM. Still for that read-out and setting: in the case of `COC(C)(c1ccc(CN(c2ncc3ccccc3c2C)S(=O)(=O)c2ccc(C(=O)O)cc2)cc1F)C(F)(F)F` (stereo not shown) [Example 219] it was 2.6 nM; in that of `CCOC(C)(c1ccc(CN(c2ncc3ccccc3c2C)S(=O)(=O)c2ccc(C(=O)O)cc2)cc1F)C(F)(F)F` (stereo not shown) [Example 220], 5 nM. On the same count and under the same terms, for `COC(C)(c1ccc(CN(c2ncc3ccccc3c2C)S(=O)(=O)c2ccc(C(=O)O)cc2)cc1Cl)C(F)(F)F` (stereo not shown) [Example 222] the value was 1.6 nM; for `COC1(C(F)(F)F)CCc2cc(CN(c3ncc4ccccc4c3C)S(=O)(=O)c3ccc(C(=O)O)cc3)ccc21` (stereo not shown) [Example 223], 3.5 nM. `COC(C)(c1ccc(CN(c2ncc3ccccc3c2C)S(=O)(=O)c2ccc(C(=O)O)cc2)cc1)C(F)(F)C(F)(F)F` (stereo not shown) [Example 224]: the IC50 was determined as 5.9 nM. The same measure, in the same setting: for `Cc1c(N(Cc2ccc(OC(F)(F)F)cc2)S(=O)(=O)c2ccc(C(=O)O)cc2)nc(C(C)C)c2ccccc12` [Example 225] the value was 2.8 nM; for `Cc1c(N(Cc2ccc(OC(F)(F)F)cc2)S(=O)(=O)c2ccc(C(=O)O)cc2)nc(C2CCCC2)c2ccccc12` [Example 226], 9.2 nM.

`CC(C)c1c(N(Cc2ccc(OC(F)(F)F)cc2)S(=O)(=O)c2ccc(C(=O)O)cc2)ncc2ccccc12` [Example 227]: the IC50 is 5.6 nM.

Take `CCOc1nc(N(Cc2ccc(OC(F)(F)F)cc2)S(=O)(=O)c2ccc(C(=O)O)cc2)c(C)c2ccccc12` [Example 228]: the IC50 was 7.2 nM.

With `COc1nc(N(Cc2ccc(OC(F)(F)F)cc2)S(=O)(=O)c2ccc(C(=O)O)cc2)c(C)c2cccc(C)c12` [Example 229], the 50% inhibitory concentration (IC50) came to 44 nM.

With `Cc1c(N(Cc2ccc(OC(F)(F)F)cc2)S(=O)(=O)c2ccc(C(=O)O)cc2)ncc2cccc(Cl)c12` [Example 230], the IC50 came out at 44 nM. In the case of `CC(C)c1nc(N(Cc2ccc(OC(F)(F)F)cc2)S(=O)(=O)c2ccc(C(=O)O)cc2)c(C2CC2)c2ccccc12` [Example 231], the IC50 came to 6.9 nM. Regarding `O=C(O)c1ccc(S(=O)(=O)N(Cc2ccc(OC(F)(F)F)cc2)c2nc(C3CC3)c3ccccc3c2C2CC2)cc1` [Example 232], the concentration for half-maximal inhibition (IC50) came out at 10 nM. As to `Cc1c(N(Cc2ccc3[nH]cc(Cl)c3c2)S(=O)(=O)c2ccc(C(=O)O)cc2)ncc2ccccc12` [Example 236], the half-inhibitory concentration (IC50) was determined as 522 nM. Still for that read-out and setting: in the case of `Cc1c(N(Cc2ccc3c(c2)c(Cl)cn3C)S(=O)(=O)c2ccc(C(=O)O)cc2)ncc2ccccc12` [Example 237] it was 12 nM. `CNC(=O)c1ccc(S(=O)(=O)N(Cc2ccc(OC(F)(F)F)cc2)c2ncc3ccccc3c2C)cc1` [Example 238]: the IC50 was 103 nM. On the same count and under the same terms, in the case of `Cc1c(N(Cc2ccc(OC(F)(F)F)cc2)S(=O)(=O)c2ccc(C(=O)NC#N)cc2)ncc2ccccc12` [Example 239] it was 14 nM; in that of `CCONC(=O)c1ccc(S(=O)(=O)N(Cc2ccc(OC(F)(F)F)cc2)c2ncc3ccccc3c2C)cc1` [Example 240], 18 nM.

`NC(=O)c1ccc(S(=O)(=O)N(Cc2ccc(OC(F)(F)F)cc2)c2ncc3ccccc3c2C2CC2)cc1` [Example 241]: the IC50 is 8.5 nM. Consider `NC(=O)c1ccc(S(=O)(=O)N(Cc2ccc(OC(F)(F)F)cc2)c2ncc3ccccc3c2C(F)(F)F)cc1` [Example 242], for which the IC50 was 10 nM.

A further assay addresses TRPM8 (Rattus norvegicus (Rat), UniProt Q8R455). Put plainly: In vivo TRPM8 antagonistic assay in rats (menthol-induced wet-dog shakes). The conditions noted are these: SD male rats; 3 mg/kg po 1 hour prior to menthol 50 mg/kg ip; WDS counted for 5 min. The procedure: The antagonistic activity of compounds was assessed in the “wet-dog” shakes (WDS) model in rats. […] Pretreatment of the rats with a TRPM8 antagonist prior to menthol administration inhibits the observed shaking behavior.
To assess the ability of a TRPM8 antagonist to prevent menthol induced shaking behavior in Sprague Dawley (SD) male rats, test compounds (3 mg/kg, po, in 0.5% methyl cellulose; N=3-4/group) were administered 1 hour prior to menthol challenge (50 mg/kg, ip, in 10% Macrogol 15 Hydroxystearate/saline). Spontaneous WDS were counted for 5 min post menthol dosing. Inhibition of the spontaneous WDS behavior relative to vehicle pretreatment is expressed as percent inhibition, calculated as follows: % Inhibition=[1−(treatment WDS count/vehicle WDS count)]×100.
As to `O=C(O)c1ccc(S(=O)(=O)N(Cc2ccc(OC(F)(F)F)cc2)c2ncc3ccccc3c2C(F)(F)F)cc1` [Example 106, 4-({[4-(trifluoromethoxy)benzyl][4-(trifluoromethyl)isoquinolin-3-yl]amino}sulfonyl)benzoic acid], the “TRPM8 antagonistic assay (% Inhibition @ 3 mg/kg)” value is 92.7%.

Take `COc1c(N(Cc2ccc(OC(F)(F)F)cc2)S(=O)(=O)c2ccc(C(=O)O)cc2)ncc2ccccc12` [Example 149]: the “TRPM8 antagonistic assay (% Inhibition @ 3 mg/kg)” value amounted to 98.8%. Consider `O=C(O)c1ccc(S(=O)(=O)N(c2ncc3ccccc3c2C2CC2)C2CCc3cc(OC(F)(F)F)ccc32)cc1` (stereo not shown) [Example 186], for which the “TRPM8 antagonistic assay (% Inhibition @ 3 mg/kg)” value was found to be 83.5%. Still for that read-out and setting: for `CC(C)c1c(N(Cc2ccc(OC(F)(F)F)cc2)S(=O)(=O)c2ccc(C(=O)O)cc2)ncc2ccccc12` [Example 227] the value was 72.5%.
